Reference: paper PMC1790702, “Non-Metabolic Membrane Tubulation and Permeability Induced by Bioactive Peptides” (PLoS ONE, 2007)
Like-named read-outs stand apart in the source and are kept apart here.

Experiments:
[1] = Small angle X-ray scattering of multilamellar vesicles, electron density profiles; type: physicochemical; details: for S^−1 (repeat distance), Ld1 phase / S^−1 (repeat distance), Ld2 phase: 5 mM HEPES pH 7.4, 20°C; for dwater (thickness of the hydration layer), Ld2 phase: peptide-free 2.19; for dwater (thickness of the hydration layer), Ld1 phase: peptide-free 2.23; for dbilayer (thickness of the membrane bilayer), Ld1 phase: peptide-free 3.90; for Change of bilayer thickness, Ld1 phase / Change of membrane thickness, Ld2 phase: versus peptide-free PC/PG (9/1) MLVs, P/L 1/20 (w/w)
Experimental: Briefly, samples for SAXS examination were prepared by dissolving dry lipids in chloroform/methanol (2/1, vol/vol) and mixing to obtain the indicated proportions. The solvent was subsequently evaporated under a stream of oxygen-free dry nitrogen at 45°C and traces of solvent removed by a storage under high vacuum for 2 days. In order to obtain the Multiple Lamellar Vesicles (MLVs) the dry lipids were hydrated with an equal weight of buffer (5 mM HEPES pH 7.4). The aqueous lipid dispersion was thoroughly stirred to obtain a homogeneous dispersion, sealed under argon and kept until examination at 4°C. For X-ray measurements, lipid samples (∼20 µl) were deposited between two thin mica windows and mounted on a programmable thermal stage (Linkam, UK). The temperature was monitored by a thermocouple (Quad Service, Poissy, France) inserted directly into the lipid dispersion. Samples were exposed for 30 seconds to the beam (1.5 Å wavelength). The SAXS quadrant detector response was corrected for the uneven channel response using a static radioactive […] and S was calibrated for d-spacing using hydrated rat tail collagen. Information on the setup, calibration, and facilities are available on the station web site (http://www.srs.dl.ac.uk/ncd/station82/description.html).
The electron density profiles of lipid bilayers were obtained by Fourier synthesis of x-ray diffraction patterns. Integrated densities were derived from five diffraction orders (estimated spatial resolution <0.12 nm) by measuring the area under each diffraction peak separated and integrated using the software Peakfit (Seasolve).

[2] = LUV aggregation by turbidimetry; details: for Peptide/Lipid ratio at which LUVs are aggregated efficiently: discussion, from figure 5; for P/L ratio at which LUV aggregation decreases: peak-like profile; for Peptide/lipid mass ratio (P/L) at which LUV aggregation starts: turbidity, absorbance at 340 nm, 10 µg LUVs in 500 µl HEPES 10 mM pH 7.4, 20 min after peptide addition
Experimental: (§1) Large unilamellar vesicles (LUV) were prepared by extrusion through a polycarbonate filter (pore diameter 100 nm) in an extrusion device from Avestin as described in [38]. To obtain calcein loaded LUVs, at 2 mg/ml lipid concentration (PC/PG/ [^14C] PC 9/1/0.01 mol ratio), a solution in chloroform was dried under a gentle stream of nitrogen and maintained under vacuum for at least 2 h to ascertain removal of residual solvent. Then, the dried lipid film was hydrated with 1 ml of 70 mM calcein solution in HEPES 10 mM pH 7.4, vigorously vortexed and extruded. Free calcein was separated by passing the suspension trough two gel filtration columns in tandem (Econo-Pac 10 DG, Bio-Rad). The final lipid concentration was quantified measuring the [^14C] PC radiactivity with a liquid scintillation counter LS 6000 SC (Beckman Coulter France).
LUVs aggregation was monitored by turbidimetry (absorbance at 340 nm) in a Cary spectrophotometer (Varian) as described. Peptides were added to a 500 µl quartz cuvette containing 10 µg of LUVs in a HEPES 10 mM pH 7.4 buffer and the absorbance was followed during 20 min after peptide exposure. At this time, membrane aggregation attained the plateau.

[3] = Tryptophan fluorescence, membrane binding; details: excitation 280 nm, PC/PG (9/1) LUVs, 25°C
Experimental: Tryptophan fluorescence was measured following the recommendations described in [51]. Excitation wavelength was 280 nm, and emission spectrum was collected (290–600 nm). Excitation and emission slits were 6 nm and 5 nm respectively. A cross-oriented configuration of the polarizer (Expol = 90°, Empol = 0°) was used in order to reduce LUVs diffusion artefacts.

[4] = Calcein leakage from LUVs; details: 25°C; for Calcein release: peptide/lipid ratio of 1/2, LUVs PC/PG/[14C]PC 9/1/0.01, 70 mM calcein, HEPES 10 mM pH 7.4, 5 min after peptide addition, fluorescence, relative to lysis with 1% Triton X-100
Experimental: as §1
The release of calcein after 5 minutes of peptide exposure to LUVs was measured by spectrofluorimetry (Varian eclipse) at excitation and emission wavelengths of 490 nm and 500–650 nm, respectively. […] Leakage was expressed as a percent relative of the total amount of dye released by LUVs lysis with 1% Triton X-100, according to equation: % release = 100×(F(t)−F0)/(FT−F0). F(t) is the fluorescence intensity at time t, F0 is the fluorescence intensity before peptide addition and FT the fluorescence intensity after LUVs lysis.

[5] = test system: Annexin 2-GFP transfected MDCK cells; experiment: Cell permeability, Ca2+ influx monitored by Annexin 2-GFP movement; type: cell-based; details: for Permeability towards ions at high peptide concentration: 100 µM peptide; for Permeability towards ions at high peptide concentration / Ca2+ influx and mobilization of annexin 2 from cytosol to the plasma membrane: Annexin 2-GFP MDCK cells; for Cell permeabilization: monitored by calcium permeability inducing annexin 2 movement in MDCK cells; for Ca2+ influx and mobilization of annexin 2 from cytosol to the plasma membrane: 10 µM peptide, in 10 minutes
Experimental: (§2) Annexin 2-GFP expression vector was a kind gift of Dr Stephen Moss (London UK). The annexin2-GFP transfected MDCK cloning will be published elsewhere. MDCK cells were cultured as described. Peptides were added at different concentrations and the annexin-GFP fluorescence was followed in a Zeiss inverted microscope. Films were acquired with Metamorph software. Cytotoxicity in CHO cells was evaluated using the CCK8 cell counting kit (Dojindo Laboratories). Briefly, cell suspension (100 µl, 1500 CHO cells per well) were seeded in DMEM plus 10 % FCS in 96-well microtiter plate at 37°C. 10 µl of peptides were added twice to the cells after 24 and 48 hours of cell culture to obtain concentrations of 1, 10, 20 and 50 µM and the toxicity was evaluated 48 after treatment.

[6] = test system: CHO cells; experiment: Cytotoxicity, CCK8 cell counting kit; type: cell-based; details: for Lethality: after 48 hours of incubation of CHO cells with 10 µM peptides, CCK8, DMEM plus 10 % FCS, 37°C
Experimental: as §2

[7] = Membrane deformations on giant unilamellar vesicles, phase contrast video-microscopy
Experimental: Giant unilamellar vesicles (GUVs) were obtained by electroformation as described in [49]. Briefly, 1.5 µl of PC/PG (9/1, w/w) solution (0.4 mg/ml in chloroform/methanol 9/1) were spread on each platinum electrode. The lipid film was dried for half an hour under a gentle stream of nitrogen. The chamber was placed in an inverted microscope (Zeiss Axiovert 200M) and a thermocouple positioned to monitor the temperature (25°C). The electrodes were then completely hydrated with 2 ml of a low ionic strength buffer (HEPES 0.5 mM, pH 7.4 and conductivity 20 µS/cm). Immediately after buffer addition, a low frequency alternating field (5 Hz and 1 V) was applied on the electrodes for at least 2 hours. GUVs of diameter between 10 to 100 µm were observed. […] The observation temperature was 25°C.

[8] = PC/PG (9/1) MLVs, peptide/lipid 1/20 (w/w)
[9] = PC/PG (9/1) MLVs, peptide/lipid 1/20 (w/w), 20°C
[10] = PC/PG (9/1) MLVs, peptide/lipid 1/20 (w/w), 20°C, peptide-free 3.62
[11] = turbidity at 340 nm, HEPES 10 mM pH 7.4, 20 min, 25°C

## RRWWRRWRR-NH2 [RW9, short secondary amphipathic polyarginine-tryptophane peptide, free N-terminal amino group]
[1]; [8]
  S^−1 (repeat distance), Ld1 phase: 5.96 nm
  S^−1 (repeat distance), Ld2 phase: 5.74 nm
[1]; [9]
  dwater (thickness of the hydration layer), Ld2 phase: 2.19 nm
  dwater (thickness of the hydration layer), Ld1 phase: 2.33 nm
  dbilayer (thickness of the membrane bilayer), Ld1 phase: 3.63 nm
[1]; [10]
  dbilayer (thickness of the membrane bilayer), Ld2 phase: 3.55 nm
[1]; 20°C
  Change of bilayer thickness, Ld1 phase: −2.7 Å
[2]
  Peptide/Lipid ratio at which LUVs are aggregated efficiently: 1/30
[2]; [11]
  P/L ratio at which LUV aggregation decreases: 1/10
[2]; 25°C
  Peptide/lipid mass ratio (P/L) at which LUV aggregation starts: 1/35
[3]
  P/L ratio of peptide-membrane saturation (maximal shift in emission wavelength): 1/15
[4]
  Calcein release: 7%
[5]
  Permeability towards ions at high peptide concentration: did not induce any increase in permeability towards ions
  Cell permeabilization: no
[6]
  Lethality: 0%

## RRWRRWWRRWWRRWRR-Bi [RW16, secondary amphipathic polyarginine-tryptophane peptide with biotin (Bi) on N-terminus]
[1]; [8]
  S^−1 (repeat distance), Ld1 phase: 6.08 nm
  S^−1 (repeat distance), Ld2 phase: 5.89 nm
[1]; [9]
  dwater (thickness of the hydration layer), Ld2 phase: 2.18 nm
  dwater (thickness of the hydration layer), Ld1 phase: 2.25 nm
  dbilayer (thickness of the membrane bilayer), Ld1 phase: 3.83 nm
[1]; [10]
  dbilayer (thickness of the membrane bilayer), Ld2 phase: 3.71 nm
[1]; 20°C
  Change of membrane thickness, Ld2 phase: 0.9 Å
[2]; [11]
  P/L ratio at which LUV aggregation decreases: 1/10
[2]; 25°C
  Peptide/lipid mass ratio (P/L) at which LUV aggregation starts: around 1/25
[3]
  P/L ratio of peptide-membrane saturation (maximal shift in emission wavelength): 1/10
[4]
  Calcein release: 14%
[5]
  Ca2+ influx and mobilization of annexin 2 from cytosol to the plasma membrane: provoked the Ca^2+ influx
  Cell permeabilization: yes
[6]
  Lethality: 0%

## RRLRRLLRRLLRRLRR-Bi [RL16, secondary amphipathic polyarginine-leucine peptide with biotin (Bi) on N-terminus]
[7]; GUVs PC/PG 9/1, 25°C
  GUV integrity: complete GUV destruction after few seconds
[1]; [8]
  S^−1 (repeat distance), Ld1 phase: 6.20 nm
  S^−1 (repeat distance), Ld2 phase: 6.01 nm
[1]; [9]
  dwater (thickness of the hydration layer), Ld2 phase: 2.26 nm
  dwater (thickness of the hydration layer), Ld1 phase: 2.27 nm
  dbilayer (thickness of the membrane bilayer), Ld1 phase: 3.93 nm
[1]; [10]
  dbilayer (thickness of the membrane bilayer), Ld2 phase: 3.75 nm
[1]; 20°C
  Change of membrane thickness, Ld2 phase: +1.3 Å
[2]; [11]
  P/L ratio at which LUV aggregation decreases: 1/10
[2]; 25°C
  Peptide/lipid mass ratio (P/L) at which LUV aggregation starts: around 1/25
[4]; 5 min after peptide addition
  P/L ratio at which a significant calcein release from LUVs is induced: 1/5
[4]
  Calcein release: 38%
[5]
  Ca2+ influx and mobilization of annexin 2 from cytosol to the plasma membrane: provoked the Ca^2+ influx
  Cell permeabilization: yes
[6]; CHO cells, 48 hours of peptide incubation
  Cell toxicity: the only toxic peptide
[6]
  Lethality: 55%

## RPKPQQFFGLM-NH2 [SP, Substance P, neuromodulator, primary amphipathic peptide, free N-terminal amino group, reference compound]
[7]; after 6 hours of incubation, 50 µl of peptide solution at 0.5 mM in 2 ml of buffer
  GUV morphology at high peptide concentration: did not perturb GUVs morphology
[1]
  dbilayer (thickness of the membrane bilayer), Ld2 phase: 3.54 nm
[1]; [8]
  S^−1 (repeat distance), Ld1 phase: 5.96 nm
  S^−1 (repeat distance), Ld2 phase: 5.75 nm
[1]; [9]
  dwater (thickness of the hydration layer), Ld2 phase: 2.21 nm
  dwater (thickness of the hydration layer), Ld1 phase: 2.34 nm
  dbilayer (thickness of the membrane bilayer), Ld1 phase: 3.62 nm
[1]; 20°C
  Change of bilayer thickness, Ld1 phase: −2.8 Å
[2]; turbidity at 340 nm, HEPES 10 mM pH 7.4, 25°C
  LUV aggregation: does not aggregate LUVs
[4]
  Calcein release: 8%
[5]
  Permeability towards ions at high peptide concentration: did not induce any increase in permeability towards ions
  Cell permeabilization: no
[6]
  Lethality: 0%

## RRRRRRRRR-NH2 [R9, Polyarginine, cell-penetrating peptide, nine arginines, free N-terminal amino group, reference compound]
[7]; GUVs PC/PG 9/1, 25°C
  Time for growing micro-tubes to invade the entire vesicle internal volume: less than 20 minutes
[2]
  Peptide/Lipid ratio at which LUVs are aggregated efficiently: 1/50
[2]; [11]
  P/L ratio at the plateau of LUV aggregation: 1/45
[2]; 25°C
  Peptide/lipid mass ratio (P/L) at which LUV aggregation starts: 1/80
[4]
  Calcein release: 8%
[5]
  Permeability towards ions at high peptide concentration: did not induce any increase in permeability towards ions
  Cell permeabilization: no
[6]
  Lethality: 0%
